Reference: the METLIN SMRT retention time set (Domingo-Almenara et al. 2019)

Assay: gradient 5% acetonitrile 3 min, to 50% in 2 min, to 85% in 15 min, held 3 min, 100 µL/min
Conditions: column: Zorbax Extend-C18 2.1 x 50 mm; eluents: water / acetonitrile, 0.1% formic acid
Procedure, shortened: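 Standards, all pure, were combined into mixtures of ~100 molecules and run at 100 μL/min on a Zorbax Extend-C18 column (2.1 × 50 mm, 1.8 μm) with water and acetonitrile, each containing 0.1% formic acid. A coupled quadrupole time-of-flight mass spectrometer operated in positive and negative ionization mode. Retention time values come from computationally picked adduct peaks, each inspected manually.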

Row | SMILES | RP-LC retention time
1 | Cc1ccc(C)c(-c2coc(-c3ccc(NC(=O)NCc4ccc(F)cc4)cc3)n2)c1 | 1190 s
2 | O=C(COc1ccc(Br)cc1)NCc1ccc2c(c1)OCCCO2 | 933 s
3 | NC(=O)C1CCN(C(=O)Cc2cc(-c3ccco3)on2)CC1 | 580 s
4 | CCCC(C(=O)OCCN(CC)CC)(c1ccccc1)c1ccccc1 | 920 s
5 | CC(C)c1ccccc1NC(=O)CN1C(=O)NC2(CCCCC2)C1=O | 807 s
6 | CCn1cc(CN2CCC(N3C(=O)C4(CCCC4)C3c3ccccc3)CC2)cn1 (centres undefined) | 673 s
7 | Cc1cc2c(cc1S(=O)(=O)N1CCCC1C(=O)NCc1ccc3c(c1)OCO3)OCC(=O)N2 (centres undefined) | 718 s
8 | CC(C)CNc1nc2ccncc2n(Cc2ccccc2)c1=O | 672 s
9 | COc1cccc(Cn2cccc(S(=O)(=O)N3CCC(C)CC3)c2=O)c1 | 954 s
10 | Cc1ccc(Cn2cc(-c3ccncc3)cc2C(=O)NCC2CC2)cc1 | 705 s
11 | COc1ccc(C(=O)N2CCN(c3cc(-c4cccs4)[nH]n3)CC2)cc1F | 837 s
12 | Cn1c(C(=O)N2CCN(c3ccccn3)CC2)cc2c(=O)n(C)c3ccccc3c21 | 562 s
13 | CSc1ccc(-c2nc3ccccn3c2NC2CCCCC2)cc1 | 802 s
14 | CCc1ccccc1NS(=O)(=O)c1cc(-c2nc(C)cs2)sc1C | 1100 s
15 | Cc1ccc(Cn2cc(-c3ccncc3)cc2C(=O)N2CCC(N3CCCCC3)CC2)cc1 | 564 s
16 | CCc1cccc(NC(=O)N2CCN(c3cc(C)nc(N4CCCC4)n3)CC2)c1 | 704 s
17 | Cc1sc(-c2cc(C(F)(F)F)on2)cc1S(=O)(=O)N1CCCCC1 | 1210 s
18 | CC1=C(c2ccc(C)cc2)S(=O)(=O)N=C1N1CCCN(C(=O)C2CCOC2)CC1 (centres undefined) | 732 s
19 | CC(C)n1cnc2cc(CNC(=O)c3nn(C)c4ccccc34)ccc21 | 629 s
20 | O=S(=O)(Cc1ccc(Cl)cc1)N1CCc2nc(-c3ccc(F)cc3)ncc2C1 | 1100 s
21 | Cc1ccc(NC(=O)Cn2c(=O)nc(N3CCC(C)CC3)c3ccccc32)cc1C | 909 s
22 | O=C(NCC1CCCO1)c1ccc(CN2CCN(Cc3ccccc3)C(=O)C2=O)cc1 (centres undefined) | 669 s
23 | O=C(NCCCc1ccccc1)C1CCN(c2nnc3ccc(Cl)cn23)CC1 | 760 s

Row | SMILES | RP-LC retention time
24 | O=C(NCc1nc2ccccc2n1CC(=O)N1CCCCC1)c1ccco1 | 614 s
25 | CCN(CC)C(=O)COc1ccc(NC(=O)C2CC2)cn1 | 664 s
26 | Cc1nc(CCNC(=O)C2CCC2)no1 | 608 s
27 | Cc1cc(=O)n(CC(=O)NC2CCCC2)c(N2CCOCC2)n1 | 599 s
28 | CCc1cccc(C)c1NC(=O)C1CCCN(S(=O)(=O)c2cc(-c3noc(C)n3)cs2)C1 (centres undefined) | 995 s
29 | Cc1cc(C)cc(NS(=O)(=O)c2cn(CC(C)C)c3ncccc23)c1 | 763 s
30 | CCN(CCN(C)C)C(=O)c1cc2c(s1)N(CC)CCCC2 | 599 s
31 | Cc1cccc(CNC(=O)C2CCCN(c3ccc(=O)n(-c4ccc(C)c(Cl)c4)n3)C2)c1 (centres undefined) | 984 s
32 | Oc1ccc(-c2nc3ncccn3c2Nc2cccc(C(F)(F)F)c2)cc1 | 764 s
33 | Cc1cccc(Cl)c1NC(=O)CN1C(=O)NC2(CCC(C)CC2)C1=O (centres undefined) | 805 s
34 | COc1ccc(OC)c(S(=O)(=O)N2CCCC(C(=O)Nc3cccc(SC)c3)C2)c1 (centres undefined) | 972 s
35 | O=C(c1ccccc1Br)N(Cc1cccc(Cl)c1)C1CCS(=O)(=O)C1 (centres undefined) | 846 s
36 | CCc1nc2cc(-c3noc(-c4cccc(F)c4)n3)ccc2o1 | 1230 s
37 | CCCCS(=O)(=O)NCCc1noc(-c2ccccc2)n1 | 615 s
38 | Cn1c(CCNC(=O)c2cccc(C(F)(F)F)c2)nc2cccnc21 | 664 s
39 | O=C1COc2cc(Cl)ccc2N1Cc1nc(-c2ccc(F)c(Br)c2)no1 | 1210 s
40 | COC(=O)c1cnc2nc(C)ccc2c1Nc1cc(F)ccc1F | 669 s
41 | CC(C)c1cc(C(=O)Nc2ccc(F)cc2)nn1C1CCS(=O)(=O)C1 (centres undefined) | 860 s
42 | O=C1CC(CNS(=O)(=O)c2ccc3c(c2)OCCO3)CN1c1ccc(Cl)cc1 (centres undefined) | 788 s
43 | CCN1C(=O)c2c(C(=O)NCCc3cccc(C)c3)ncn2CC1(C)C(=O)NC1CCCC1 (centres undefined) | 819 s
44 | Cc1[nH]c(C(=O)N2CCCC(C(=O)NCC3CCCO3)C2)c(C)c1C(=O)OC(C)C (centres undefined) | 701 s
45 | O=C(Cn1c(=O)c2cccn2c2ccccc21)NCCCc1ccccc1 | 874 s

Second part, the compound after the results:

Row | RP-LC retention time | SMILES
46 | 795 s | COCc1cc2nn(CC(=O)Nc3ccccc3F)c(=O)n2c(-c2ccccc2)n1
47 | 1030 s | O=C1[C@H]2CN(Cc3cc(Br)ccc3F)C[C@H]2C(=O)N1CCc1ccccc1
48 | 698 s | O=C(Nc1ccc(-n2cnc(C(=O)N3CCCCCC3)c2)nc1)C1CC1
49 | 873 s | CCn1c(=O)n(CC)c2cc(S(=O)(=O)c3ccc(C)cc3)c(NC(=O)C3CC3)cc21
50 | 835 s | COc1ccc(N2CC(c3nnc(NC(=O)c4ccc(Cl)cc4)o3)CC2=O)cc1 (centres undefined)
51 | 738 s | CCOc1ccccc1CNC(=O)c1nc(N2CCOCC2)c2ccccc2n1
52 | 966 s | COc1ccc(-n2cc(C(=O)Nc3ccc(SC)cc3)nn2)cc1
53 | 1270 s | O=C(Cc1csc(-c2ccccc2)n1)Nc1nc(-c2cccc(Br)c2)cs1
54 | 654 s | O=C(c1nnc(-c2ccc(S(=O)(=O)N3CCCCC3)cc2)o1)N1CCC(N2CCCCC2)CC1
55 | 915 s | COc1ccc(-c2nn3c(-c4cc(C(C)C)[nH]n4)nnc3s2)c(OC)c1
56 | 636 s | Cc1ccc2nc(CNC(=O)C3CCN(S(=O)(=O)c4ccc5c(c4)sc(=O)n5C)CC3)[nH]c2c1
57 | 675 s | CN1CCN(c2cccc(Nc3nc4c(-c5ccc(S(C)(=O)=O)cc5)cccn4n3)c2)CC1
58 | 675 s | NC(=O)CCSc1nnc(SCC(=O)c2ccccc2)s1
59 | 738 s | O=C(Nc1ccc(F)cc1)N1CCCCCC1
60 | 798 s | O=C(Nc1ccccc1)C1CCCN(c2ncnc3c2oc2ccccc23)C1 (centres undefined)
61 | 722 s | Nc1cc(C2CCN(C(=O)Nc3ccc(Cl)cc3)CC2)no1
62 | 683 s | O=S(=O)(c1cccs1)N1CCN(c2cnn3c(C4CC4)nnc3c2)CC1
63 | 906 s | CC(C)N1C(=O)c2cccnc2Sc2cc(NC(=O)Cc3ccccc3Cl)ccc21
64 | 1040 s | O=C(COc1ccc(Br)cc1)Nc1cncc(-c2nc3ccccc3o2)c1
65 | 1060 s | Cc1cc2nn(CC(=O)NCc3ccccc3)c(=O)n2c(Nc2ccc(C)c(C)c2)n1
66 | 1100 s | O=c1c2ccccc2n(Cc2nc(-c3cccc(C(F)(F)F)c3)no2)c(=O)n1CC1CCCO1 (centres undefined)
67 | 602 s | CC(C)(C)c1cc(C(N)=O)n[nH]1

Row | RP-LC retention time | SMILES
68 | 564 s | CCn1cc(CC(=O)NC2CCN(Cc3ccccc3)CC2)c2cccnc21
69 | 837 s | CC(C)C(=O)Nc1ccc(OCc2cc(C(=O)NC3CCCC3)no2)cc1
70 | 902 s | Cc1ccc2[nH]cc(CCNC(=O)c3cc(-c4ccccn4)nc4ccccc34)c2c1
71 | 1120 s | CC(C)c1noc(C2(NC(=O)CCC3CCCC3)CCCCC2)n1
72 | 812 s | Cc1cccc(N2CCN(C(=O)CN3C(=O)CN(C)C(=O)c4ccccc43)CC2)c1C
73 | 1000 s | COCCCNc1onc(-c2ccc(Cl)cc2)c1C(=O)OC
74 | 579 s | C=CCN1CCN(C(=O)C2CCN(c3nc(NC(C)=O)c(C(=O)N4CCCC4)s3)CC2)CC1
75 | 734 s | O=C(CCn1cnc2cc(-c3noc(CCc4c[nH]c5ccccc45)n3)ccc21)N1CCCC1
76 | 980 s | COc1cccc(-c2cc(=O)n3c4ccccc4n(CC(=O)Nc4ccc(F)cc4)c3n2)c1
77 | 812 s | CCn1cnc(S(=O)(=O)N2CCC(C(=O)Nc3nc4ccc(C)cc4s3)CC2)c1
78 | 872 s | COc1ccc2nc(C(=O)NCc3ccc(F)cc3Cl)cn2n1
79 | 639 s | CN(C)C[C@@H]1CN(Cc2ccncc2)C[C@H]1NS(=O)(=O)c1ccc(C#N)cc1
80 | 557 s | COc1ccc(N2CCN(Cc3cc(=O)c(OC)cn3CC(=O)NC(C)C)CC2)cc1
81 | 640 s | COc1ccccc1NC(=O)Nc1nc(CC(=O)N2CCC(C(N)=O)CC2)cs1
82 | 910 s | COc1cc(OC)c(NS(=O)(=O)c2ccc3c(c2)-c2oncc2CO3)cc1Cl
83 | 893 s | O=C(NCc1ccccc1)C(=O)NCC1OCCc2ccccc21 (centres undefined)
84 | 1040 s | CN(Cc1ccccc1)C(=O)c1nnc(-c2ccc(S(=O)(=O)N3CCCCC3)cc2)o1
85 | 657 s | CCCNC(=O)C1CCN(c2ccc(SCC(=O)Nc3ccc(C(C)C)cc3)nn2)CC1
86 | 739 s | Cc1nn(C(C)C(=O)NC(C)C)c(=O)c2nn(-c3ccccc3)c(C)c12 (centres undefined)
87 | 1200 s | CCn1c(=O)c(C)nc2cc(-c3noc(-c4ccc(C)cc4)n3)ccc21
88 | 688 s | O=C(C1CC1)N1CCCN(c2ccc([N+](=O)[O-])cc2)CC1
89 | 684 s | Cc1ccc(CNC(=O)c2ccc3ncnc(N4CCCC4)c3c2)cc1C
